{"source": "patent US20110158922A1", "about": "“Skin Care Compositions and Method of Use Thereof” (priority 2008, published 2011)", "origin": "cited, not measured here", "key": {"collagen glycation": {"test_system": "collagen glycation", "conditions": "in vitro"}, "[1]": {"test_system": "skin cell energy production", "conditions": "topical application"}, "synthesis of GAGs": {"test_system": "synthesis of GAGs", "conditions": "in-vitro study"}, "[2]": {"test_system": "T-T dimmers in DNA, DNA repair, cell viability following UV exposure", "conditions": "in vitro"}}, "note": "No end group written: not given here. *: point of attachment. Palmitoyl = CCCCCCCCCCCCCCCC(=O)*"}
{"molecule": "COc1ccc([C@@H]2CC(=O)c3c(O)cc(O[C@@H]4O[C@H](CO[C@@H]5O[C@@H](C)[C@H](O)[C@@H](O)[C@H]5O)[C@@H](O)[C@H](O)[C@H]4O)cc3O2)cc1O", "note": "[Hesperidin flavonoids, hesperidin]", "values": [{"measurement": "collagen glycation", "setting": "collagen glycation", "value": "inhibit collagen glycation in vitro"}]}
{"molecule": "CN(CC(=O)O)C(=N)N", "note": "[creatine]", "values": [{"measurement": "skin cell energy production", "setting": "[1]", "value": "substantial improvement in skin cell energy production"}]}
{"molecule": "Palmitoyl-Lysysl-Threonyl-Threonyl-Lysyl-Serine (Palmitoyl-KTTKS) [Palmitoyl pentapeptide-4, peptide derived from a collagen precursor]", "values": [{"measurement": "synthesis of GAGs", "setting": "synthesis of GAGs", "value": "increase synthesis of GAGs"}]}
{"molecule": "ethylbisiminomethylguaiacol manganese chloride", "values": [{"measurement": "DNA repair", "setting": "[2]", "value": "stimulates DNA repair"}, {"measurement": "cell viability following UV exposure", "setting": "[2]", "value": "increasing cell viability following UV exposure"}, {"measurement": "formation of T-T dimmers in DNA", "setting": "[2]; UV exposure", "value": "reduces the formation of T-T dimmers in DNA"}]}
